# What was measured:
# H4IIE hepatoma cells [1] = assay: RNA synthesis (3H-uridine incorporation) in insulin-stimulated quiescent H4IIE cells; type: cell-based; settings: comparison with 3-aminobenzamide; 1 μM insulin, 6 hours; FIG. 1
# Method: Incorporation of uridine or thymidine was used to define the change in rate of […] synthesis, respectively, in response to a mitogen such as insulin. Specifically, quiescent H4IIE cells were prepared by placing the cultures (in 24-well dishes) into serum-free a-minimal essential medium for 3 days. It is of note that the normal growth media for H4IIE cells is α-MEM containing 10% fetal bovine serum (FBS). […] Cells were subsequently lysed with detergent and the nucleic acids precipitated with 5% trichloroacetic acid. The precipitated material was collected on glass fibre filters and the radioactive content measured by scintillation counting.
# H4IIE hepatoma cells [2] = assay: MTT staining of viable cells (cell number); type: cell-based
# Method: In this assay, H4IIE cells are plated on 96-well dishes, and incubated in standard growth medium. Separate plates were prepared for comparing the effects of MIBG after 2 or 4 days. At those time points, 200 μl of 5 mg/ml MTT was added to each well, and the cells were incubated an additional 4 hours. The medium was removed and cells were treated with acidified isopropanol and the absorbance read at 570 nm. Increased absorbance is indicative of increases in cell number.
# c-fos = c-fos gene expression by RT-PCR in human smooth muscle cells; type: cell-based; settings: 25 μM MIBG pretreatment (10 minutes), then IGF-1 stimulated 15 minutes
# MAP kinase = MAP kinase activity gel after insulin stimulation of H4IIE cells; type: cell-based; settings: 50 μM MIBG; 1 μM insulin; 2-20 minutes; FIG. 27
# Method: Extracts were prepared at 2, 5, 10 and 20 minutes after insulin addition. MAP kinase activity was measured using an activity gel protocol with myelin basic protein polymerized in the separating gel, as described in Yau and Zahradka, 1997, Mol Cell Biochem 172: 59-66. Scanning densitometry was used to quantify the band intensities. The location of the 42 and 44 kDa MAP kinase bands was confirmed by Western blot analysis.
# H4IIE cells = assay: lactate dehydrogenase (LDH) release toxicity assay; type: cell-based; settings: 96 hours; FIG. 5
# Method: To address the issue of MIBG toxicity, lactate dehydrogenase (LDH) release was measured after incubation with MIBG or MIBA. Quiescent H4IIE cells were prepared in 96-well dishes and treated with various concentrations of either MIBG or MIBA for 96 hours. To quantify the release of LDH from the cells, which only occurs if the cells are damaged or killed by the treatment, 100 μl of culture medium was transferred to a fresh dish. To this was added 100 μl of dye/catalyst mixture (Boehringer Mannheim cytotoxicity detection kitTM), and the samples were subsequently incubated for 30 minutes at 37° C. Absorbance of the solution was monitored at 490 nm. The colour intensity indicates the relative LDH content in the test samples. […] As a consequence, it is speculated that changes in LDH release may be coupled to non-toxic and reversible alterations in mitochondrial metabolism or membrane integrity as a result of MIBG treatment.
# [3] = tested on: porcine coronary artery smooth muscle cells
# [4] = tested on: porcine coronary arteries; assay: coronary artery organ culture after balloon angioplasty (neointimal index); settings: 25 μM in culture media over 14 days; FIG. 10
# Source text: Although smooth muscle cell cultures can be used to determine the ability of a compound to inhibit proliferation, these cells are not good indicators of a compound's ability to prevent restenosis. This statement stems from the fact that several processes, including cell migration, proliferation and synthesis of ECM degrading enzymes, must be coordinately activated in order for restenosis to occur. A novel organ culture system has therefore been developed in order to test the effectiveness of MIBG and other compounds at preventing restenosis (Wilson et al, 1999, Cardiac Res 42: 761-772). In brief, hearts are transported from the abattoir to the laboratory on ice. The left descending coronary artery is exposed and a balloon catheter is inserted past the first bifurcation. The balloon is inflated, and after 1 minute is deflated and withdrawn. The damaged region (approximately 20 mm in length) is excised, cut into 4 pieces of 5 mm and each piece is placed into an individual well of a culture dish. These segments can be maintained in media containing 20% serum for up to 21 days. Upon harvest of the tissue, typically after 14 days, the vessel segments are placed into resin for histological analysis. Sections are prepared from vessel segments after removal of the first 1.5 mm. […] This file is imported into SigmaScan™, and staining in the areas of the intimal and medial layers quantified. […]
# [5] = tested on: smooth muscle cells derived from human arterial conduits; assay: DNA synthesis and cytotoxicity in human smooth muscle cells; settings: FIG. 26A
# [6] = tested on: porcine radial artery to coronary artery anastomoses; assay: bypass graft organ culture, PCNA expression; settings: 25 μM, 14 days in culture; FIG. 18
# Method: Analogous to the organ culture model described above, a model of a radial artery to coronary artery bypass graft has been developed. It is of note that the construction of this anastomosis is identical to that used clinically in a bypass operation. Specifically, porcine radial artery to coronary artery anstomoses were conducted and placed into culture for 14 days. Control segments included coronary artery dissected and immediately frozen or incubated for 14 days before freezing. Alternatively, the anastomoses were incubated in the presence of 25 μM MIBG. PCNA (proliferating cell nuclear antigen) was detected by immunostaining after cryosectioning of the vessels. Nuclei were visualized with Hoescht […]. The numbers of nuclei and PCNA positive nuclei were determined and used to quantify the proliferation index.
# L1210 = settings: non-neuronal cell line L1210; cited from earlier work
substance,measurement,setting,value
meta-iodobenzylguanidine [MIBG],inhibition of cell growth as indicated by RNA synthesis in response to insulin,H4IIE hepatoma cells [1],more potent inhibitor of cell growth
same,effect on cell number,"H4IIE hepatoma cells [2]; 20 μM, 2 or 4 days, FIG. 3",effective in preventing increases in cell number
same,MTT staining,"H4IIE hepatoma cells [2]; 200 μM, up to 96 hours",60 % of control values
same,c-fos mRNA levels,c-fos,equivalent to or below basal
same,MAP kinase activation by insulin,MAP kinase,does not inhibit MAP kinase activation by insulin
same,concentration at which increased LDH release is detectable,H4IIE cells,50 µM
same,levels at which cytotoxic,[3],≥ 200 µM
same,decrease of basal DNA synthesis,"[3]; MIBG alone, highest concentration tested, FIG. 8",≤ 40 % of the control
same,concentrations inhibiting stimulation of DNA and RNA synthesis,"[3]; stimulation by angiotensin II and serum, FIGS. 6 and 7",20 to 50 µM
same,neointimal index,[4],effectively reduces the neointimal index to control values
same,DNA synthesis and cytotoxicity compared with porcine cells,[5],comparable effects in both porcine and human tissues
same,increase in PCNA expression compared to segment examined immediately after dissection,[6],< 10 fold
same,concentration in cells relative to the surrounding medium,L1210,15 times
